Source: patent US9657071B2, “IgE peptide vaccine” (NIPPON ZENYAKU KOGYO CO., LTD., priority 2012, dated 2017)

Experiments:
[1] = tested on: Dog subjected to P-K test; experiment: Prausnitz-Kustner (P-K) test; assay type: in vivo; details: conclusion of P-K test
Method: The P-K test refers to a method for qualitatively evaluating antigen-specific IgE in test serum and employs additional antigen-unsensitized individuals. The test is summarized as follows:
1) Antigen-unsensitized animals are prepared as animals subjected to the P-K test.
2) Test serum or serum of a healthy animal (control) is intracutaneously administered to the animals subjected to the P-K test. When antigen-specific IgE is present in the test serum, the IgE binds to the surface of mast cells in the skins of the animals subjected to the P-K test within 48 hours after the administration.
3) 48 hours after the serum administration, an antigen solution is intracutaneously administered to the same sites as above. When antigen-specific IgE is present in the test serum, the antigen binds to the antigen-specific IgE bound with the surface of mast cells to form IgE cross-linking. This triggers the degranulation of the mast cells, resulting in flare confirmed in the skins.
The administration group and the non-administration group differed most largely in their serum Der f 2-specific IgE concentrations at day 77 (7 days after the second sensitization) when the effects of the test substance were thus confirmed to be maximized. […]

human IgE = experiment: IgE-specific IgG in serum of dogs given IgE peptide vaccine (ELISA, human IgE immobilized); assay type: in vivo; details: dog
Method: The peptide used was MOUSE CH3-4-17-11 (mouse CH3 region amino acid sequence) (SEQ ID NO: 27). 2 mL (500 μg) of a solution of the peptide (concentration: 250 μg/mL) and 2 mL of a complete adjuvant (DIFCO ADJUVANT COMPLETE FREUND, Becton, Dickinson and Company Japan) were dispensed to microtubes. Liquids (4 mL per animal) emulsified by shaking for 15 minutes in a high-speed shaker were used as IgE peptide vaccines.
The animals used were 1 male and 7 females of 5- to 7-month-old beagles and were divided into an administration group (n=4; 08-33, 08-42, 08-43, and 08-44) and a non-administration group (n=4; 08-45, 08-46, 08-47, and 08-48).
The peptide was administered at days 0 (test start date), 14, and 28 in the first course and further at days 106 and 117 in the second course. The test substance was subcutaneously administered to the necks of the 4 animals in the administration group. The non-administration group was untreated. […]
Each antigenic protein (MOUSE CH3-4-17-11 for peptide-specific IgG assay, and human IgE for IgE-specific IgG assay) was prepared at 1 μg/mL in an immobilization buffer (0.05 M carbonate buffer, pH 9.6), then added at a concentration of 100 μL/well to an ELISA plate, and left overnight at 4° C. […] Then, the measurement was performed using a plate reader (Bio-Rad Laboratories, Inc.; model 680) (dual: measurement: 450 nm, control: 570 nm). […]

QEKKTSVSASQWYTKHHNNATTSIT (listed as Mus musculus) [MOUSE CH3-4-17-11]
effect of vaccine-induced IgG on binding of IgE to mast cells [1]: blocks the binding of the IgE to mast cells | IgE-specific IgG in serum, administration group versus non-administration group (human IgE; day 77, p<0.05): significantly higher | level of IgG antibody against IgE (human IgE; summary of FIG. 6): increased
